Reference: patent publication US20220289794A1, “SYNTHETIC ANTIMICROBIAL PEPTIDES” (priority 2019, published 2022)
In brackets after ≈: the same amount, converted by molar mass. Where two headings read alike, the source gives them in different places. Non-standard residues stand in square brackets, D forms with d. Residues, ends and D or L forms follow the SMILES beside them. dDip = N[C@@H](C(=O)O)C(c1ccccc1)c1ccccc1; 2Nal = N[C@@H](Cc1ccc2ccccc2c1)C(=O)O; d2Nal = N[C@H](Cc1ccc2ccccc2c1)C(=O)O

What was measured:
[1] = system: Methicillin-resistant Staphylococcus aureus MRSA (ATCC BAA-1556); details: ATCC BAA-1556
S. aureus ATCC 29213 = details: ATCC 29213
[2] = system: Pseudomonas aeruginosa (ATCC 27883)
[3] = system: Escherichia coli (ATCC 25922); details: ATCC 25922
in vitro = details: human, fresh human red blood cells (washed), pH 7.4

SMILES	MIC MRSA ATCC BAA-1556 [1]	MIC S. aureus ATCC 29213 (S. aureus ATCC 29213)	MIC P. aeruginosa ATCC 27883 ([2]; ATCC 27883)	MIC E. coli ATCC 25922 [3]	HC50 at 0.5 h (in vitro)	MIC P. aeruginosa ATCC 27883 ([2]; P. aeruginosa ATCC 27883)
N=C(N)NCCC[C@@H](N)C(=O)N[C@H](CCCNC(=N)N)C(=O)N[C@H](CCCNC(=N)N)C(=O)N[C@H](CCCNC(=N)N)C(=O)N[C@@H](C(=O)N[C@@H](C(=O)N[C@@H](C(=O)O)C(c1ccccc1)c1ccccc1)C(c1ccccc1)c1ccccc1)C(c1ccccc1)c1ccccc1 [IFX-067-1] (H-[dR][dR][dR][dR][dDip][dDip][dDip]-OH)	3.1 µg/mL (≈ 2.36 µM)	3.1 µg/mL (≈ 2.36 µM)	12.5 µg/mL (≈ 9.52 µM)	6.2 µg/mL (≈ 4.72 µM)	390 µg/mL	–
N=C(N)NCCC[C@@H](N)C(=O)N[C@H](CCCNC(=N)N)C(=O)N[C@H](CCCNC(=N)N)C(=O)N[C@H](CCCNC(=N)N)C(=O)N[C@@H](Cc1c[nH]c2ccccc12)C(=O)N[C@@H](Cc1ccc2ccccc2c1)C(=O)N[C@@H](Cc1ccc2ccccc2c1)C(=O)O [IFX-113-1] (H-[dR][dR][dR][dR]W[2Nal][2Nal]-OH)	6.2 µg/mL (≈ 5.07 µM)	6.2 µg/mL (≈ 5.07 µM)	12.5 µg/mL (≈ 10.2 µM)	12.5 µg/mL (≈ 10.2 µM)	300 µg/mL	–
N=C(N)NCCC[C@H]1NC(=O)[C@@H](CCCNC(=N)N)NC(=O)[C@@H](CCCNC(=N)N)NC(=O)[C@@H](CCCNC(=N)N)NC(=O)[C@@H](Cc2ccc3ccccc3c2)NC(=O)[C@@H](Cc2ccc3ccccc3c2)NC(=O)[C@H](Cc2c[nH]c3ccccc23)NC1=O [IFX-109, c[arg-arg-arg-arg-Trp-naI-naI]] (cyclo(W[d2Nal][d2Nal][dR][dR][dR][dR]))	1.5 µg/mL (≈ 1.24 µM)	3.1 µg/mL (≈ 2.57 µM)	–	12.5 µg/mL (≈ 10.4 µM)	190 µg/mL	12.5 µg/mL (≈ 10.4 µM)
N=C(N)NCCC[C@@H]1NC(=O)[C@H](Cc2ccc3ccccc3c2)NC(=O)[C@H](Cc2ccc3ccccc3c2)NC(=O)[C@H](Cc2c[nH]c3ccccc23)NC(=O)[C@H](CCCNC(=N)N)NC(=O)[C@@H](CCCNC(=N)N)NC(=O)[C@H](CCCNC(=N)N)NC1=O [IFX-106, c[Arg-Arg-arg-Arg-Trp-NaI-NaI]] (cyclo([2Nal][2Nal]RR[dR]RW))	1.5 µg/mL (≈ 1.24 µM)	1.5 µg/mL (≈ 1.24 µM)	–	25 µg/mL (≈ 20.7 µM)	175 µg/mL	12.5 µg/mL (≈ 10.4 µM)
N=C(N)NCCC[C@@H]1NC(=O)[C@H](CCCNC(=N)N)NC(=O)[C@H](CCCNC(=N)N)NC(=O)[C@@H](Cc2ccc3ccccc3c2)NC(=O)[C@@H](Cc2ccc3ccccc3c2)NC(=O)[C@H](Cc2c[nH]c3ccccc23)NC(=O)[C@H](CCCNC(=N)N)NC1=O [IFX-112, c[Arg-Arg-Arg-Arg-Trp-naI-naI]] (cyclo(RRRRW[d2Nal][d2Nal]))	1.5 µg/mL (≈ 1.24 µM)	3.1 µg/mL (≈ 2.57 µM)	–	12.5 µg/mL (≈ 10.4 µM)	295 µg/mL	12.5 µg/mL (≈ 10.4 µM)
N=C(N)NCCC[C@H](NC(=O)[C@H](CCCNC(=N)N)NC(=O)[C@@H](N)CCCNC(=N)N)C(=O)N[C@@H](CCCNC(=N)N)C(=O)N[C@@H](C(=O)N[C@@H](C(=O)N[C@@H](C(=O)O)C(c1ccccc1)c1ccccc1)C(c1ccccc1)c1ccccc1)C(c1ccccc1)c1ccccc1 [IFX-072-1] (H-RRRR[dDip][dDip][dDip]-OH)	6.2 µg/mL (≈ 4.72 µM)	3.1 µg/mL (≈ 2.36 µM)	12.5 µg/mL (≈ 9.52 µM)	6.2 µg/mL (≈ 4.72 µM)	470 µg/mL	–
N=C(N)NCCC[C@@H]1NC(=O)[C@@H](CCCNC(=N)N)NC(=O)[C@H](CCCNC(=N)N)NC(=O)[C@@H](CCCNC(=N)N)NC(=O)[C@@H](Cc2ccc3ccccc3c2)NC(=O)[C@@H](Cc2ccc3ccccc3c2)NC(=O)[C@H](Cc2c[nH]c3ccccc23)NC1=O [IFX-110, c[arg-Arg-arg-Arg-Trp-naI-naI]] (cyclo([dR]R[dR]RW[d2Nal][d2Nal]))	1.5 µg/mL (≈ 1.24 µM)	3.1 µg/mL (≈ 2.57 µM)	–	12.5 µg/mL (≈ 10.4 µM)	225 µg/mL	12.5 µg/mL (≈ 10.4 µM)

Second part, led by results:

MIC MRSA ATCC BAA-1556 [1]	MIC S. aureus ATCC 29213 (S. aureus ATCC 29213)	MIC P. aeruginosa ATCC 27883 ([2]; ATCC 27883)	MIC E. coli ATCC 25922 [3]	HC50 at 0.5 h (in vitro)	SMILES	MIC P. aeruginosa ATCC 27883 ([2]; P. aeruginosa ATCC 27883)
3.1 µg/mL (≈ 2.57 µM)	3.1 µg/mL (≈ 2.57 µM)	32 µg/mL (≈ 26.5 µM)	32 µg/mL (≈ 26.5 µM)	220 µg/mL	N=C(N)NCCC[C@H]1NC(=O)[C@H](Cc2ccc3ccccc3c2)NC(=O)[C@H](Cc2ccc3ccccc3c2)NC(=O)[C@@H](Cc2c[nH]c3ccccc23)NC(=O)[C@@H](CCCNC(=N)N)NC(=O)[C@@H](CCCNC(=N)N)NC(=O)[C@@H](CCCNC(=N)N)NC1=O [IFX-122, c[arg-arg-arg-arg-trp-NaI-NaI]] (cyclo([2Nal][2Nal][dR][dR][dR][dR][dW]))	–
1.5 µg/mL (≈ 1.24 µM)	1.5 µg/mL (≈ 1.24 µM)	6.2 µg/mL (≈ 5.14 µM)	12.5 µg/mL (≈ 10.4 µM)	175 µg/mL	N=C(N)NCCC[C@@H]1NC(=O)[C@H](CCCNC(=N)N)NC(=O)[C@@H](CCCNC(=N)N)NC(=O)[C@H](CCCNC(=N)N)NC(=O)[C@H](Cc2ccc3ccccc3c2)NC(=O)[C@H](Cc2ccc3ccccc3c2)NC(=O)[C@H](Cc2c[nH]c3ccccc23)NC1=O [IFX-107, c[Arg-arg-Arg-Arg-Trp-NaI-NaI]] (cyclo([2Nal][2Nal]R[dR]RRW))	–
12.5 µg/mL (≈ 10.2 µM)	12.5 µg/mL (≈ 10.2 µM)	128 µg/mL (≈ 105 µM)	128 µg/mL (≈ 105 µM)	890 µg/mL	NCCCC[C@H]1NC(=O)[C@H](Cc2ccc3ccccc3c2)NC(=O)[C@H](Cc2ccc3ccccc3c2)NC(=O)[C@H](Cc2c[nH]c3ccccc23)NC(=O)[C@@H](CCCCN)NC(=O)[C@@H](CCCCN)NC(=O)[C@@H](CCCCN)NC(=O)[C@@H](CCCCN)NC1=O [IFX-134, c[lys-lys-lys-lys-lys-Trp-NaI-NaI]] (cyclo([2Nal][2Nal][dK][dK][dK][dK][dK]W))	–
12.5 µg/mL (≈ 11.4 µM)	6.2 µg/mL (≈ 5.67 µM)	128 µg/mL (≈ 117 µM)	128 µg/mL (≈ 117 µM)	880 µg/mL	NCCCC[C@H]1NC(=O)[C@@H](CCCCN)NC(=O)[C@@H](CCCCN)NC(=O)[C@@H](Cc2ccc3ccccc3c2)NC(=O)[C@@H](Cc2ccc3ccccc3c2)NC(=O)[C@@H](Cc2c[nH]c3ccccc23)NC(=O)[C@@H](CCCCN)NC1=O [IFX-130, c[lys-lys-lys-lys-trp-naI-naI]] (cyclo([d2Nal][d2Nal][dK][dK][dK][dK][dW]))	–
3.1 µg/mL (≈ 2.53 µM)	3.1 µg/mL (≈ 2.53 µM)	25 µg/mL (≈ 20.4 µM)	25 µg/mL (≈ 20.4 µM)	310 µg/mL	N=C(N)NCCC[C@H](NC(=O)[C@@H](CCCNC(=N)N)NC(=O)[C@@H](N)CCCNC(=N)N)C(=O)N[C@H](CCCNC(=N)N)C(=O)N[C@@H](Cc1c[nH]c2ccccc12)C(=O)N[C@H](Cc1ccc2ccccc2c1)C(=O)N[C@H](Cc1ccc2ccccc2c1)C(=O)O [IFX-111-1] (H-R[dR]R[dR]W[d2Nal][d2Nal]-OH)	–
3.1 µg/mL (≈ 2.53 µM)	6.2 µg/mL (≈ 5.07 µM)	25 µg/mL (≈ 20.4 µM)	12.5 µg/mL (≈ 10.2 µM)	370 µg/mL	N=C(N)NCCC[C@H](NC(=O)[C@H](CCCNC(=N)N)NC(=O)[C@H](CCCNC(=N)N)NC(=O)[C@@H](N)CCCNC(=N)N)C(=O)N[C@@H](Cc1c[nH]c2ccccc12)C(=O)N[C@H](Cc1ccc2ccccc2c1)C(=O)N[C@H](Cc1ccc2ccccc2c1)C(=O)O [IFX-112-1] (H-RRRRW[d2Nal][d2Nal]-OH)	–
6.2 µg/mL (≈ 5.67 µM)	6.2 µg/mL (≈ 5.67 µM)	64 µg/mL (≈ 58.5 µM)	64 µg/mL (≈ 58.5 µM)	590 µg/mL	NCCCC[C@@H]1NC(=O)[C@@H](CCCCN)NC(=O)[C@H](CCCCN)NC(=O)[C@@H](CCCCN)NC(=O)[C@@H](Cc2ccc3ccccc3c2)NC(=O)[C@@H](Cc2ccc3ccccc3c2)NC(=O)[C@H](Cc2c[nH]c3ccccc23)NC1=O [IFX-128, c[lys-Lys-lys-Lys-Trp-naI-naI]] (cyclo(KW[d2Nal][d2Nal][dK]K[dK]))	–
6.2 µg/mL (≈ 5.08 µM)	6.2 µg/mL (≈ 5.08 µM)	128 µg/mL (≈ 105 µM)	128 µg/mL (≈ 105 µM)	580 µg/mL	NCCCC[C@H]1NC(=O)[C@@H](CCCCN)NC(=O)[C@@H](CCCCN)NC(=O)[C@@H](Cc2ccc3ccccc3c2)NC(=O)[C@@H](Cc2ccc3ccccc3c2)NC(=O)[C@@H](Cc2c[nH]c3ccccc23)NC(=O)[C@@H](CCCCN)NC(=O)[C@@H](CCCCN)NC1=O [IFX-133, c[lys-lys-lys-lys-lys-trp-naI-naI]] (cyclo([d2Nal][d2Nal][dK][dK][dK][dK][dK][dW]))	–
1.5 µg/mL (≈ 1.24 µM)	1.5 µg/mL (≈ 1.24 µM)	6.2 µg/mL (≈ 5.14 µM)	12.5 µg/mL (≈ 10.4 µM)	350 µg/mL	N=C(N)NCCC[C@@H]1NC(=O)[C@H](CCCNC(=N)N)NC(=O)[C@H](CCCNC(=N)N)NC(=O)[C@@H](CCCNC(=N)N)NC(=O)[C@H](Cc2ccc3ccccc3c2)NC(=O)[C@H](Cc2ccc3ccccc3c2)NC(=O)[C@H](Cc2c[nH]c3ccccc23)NC1=O [IFX-108, c[arg-Arg-Arg-Arg-Trp-NaI-NaI]] (cyclo([2Nal][2Nal][dR]RRRW))	–
3.1 µg/mL (≈ 2.57 µM)	3.1 µg/mL (≈ 2.57 µM)	25 µg/mL (≈ 20.7 µM)	12.5 µg/mL (≈ 10.4 µM)	360 µg/mL	N=C(N)NCCC[C@H]1NC(=O)[C@@H](CCCNC(=N)N)NC(=O)[C@@H](CCCNC(=N)N)NC(=O)[C@@H](Cc2ccc3ccccc3c2)NC(=O)[C@@H](Cc2ccc3ccccc3c2)NC(=O)[C@@H](Cc2c[nH]c3ccccc23)NC(=O)[C@@H](CCCNC(=N)N)NC1=O [IFX-115, c[arg-arg-arg-arg-trp-naI-naI]] (cyclo([dR][dR][dR][dR][dW][d2Nal][d2Nal]))	–
